Measurements from US20240279241A1, “PYRIDO[4,3-D]PYRIMIDINE COMPOUNDS CAPABLE OF INHIBITING KRAS MUTANT PROTEINS” (Redx Pharma PLC, priority 2021, published 2024).
Read-outs that look alike come from different tables or passages of the source.

Legend:
Assay type in all cases: biochemical
KRAS WT = target: T1, KRAS WT (Homo sapiens, UniProt P01116); assay: HTRF nucleotide exchange assay (NEA), KRAS WT
T1 construct: Recombinant human RAS protein (2 nM); aa1-188 KRAS WT
Protocol: (§1) The capacity of compounds to bind KRAS G12D, other KRAS mutants and wildtype RAS isoforms was quantified using a HTRF nucleotide exchange assay. Recombinant human RAS protein (2 nM; aa1-188 KRAS WT, HRAS WT, NRAS WT, or KRAS containing the containing the G12D, G13D or Q61H amino acid substitutions, or 4 nM KRAS; aa1-188 containing the G12V, G12C, G12A or G12S amino acid substitution, an N-terminal 6×His-tag and leader sequence), and 2 nM Europium-labeled anti-6×His antibody were mixed in assay buffer (10 mM HEPES pH7.3, 150 mM NaCl, 5 mM MgCl2, 0.05% BSA, 0.0025% NP-40 and 100 mM KF) with various concentrations of compound in a 384-well plate and a volume of 5 uL. After a 60-minute incubation at room temperature, 5 ul of 200 nM EDA-GTP-DY647P1 (diluted in assay buffer) was added to the plate. Following 30-minute incubation at room temperature, time-resolved fluorescence was measured on a PerkinElmer Envision plate reader. DMSO (0.3%) and unlabeled […] (1 μM) or equivalent tool compound were used to generate the Max and Min assay signals, respectively. Data was analysed using a four-parameter logistic model to calculate IC50 values, with at least two independent replicates were performed for each compound.

KRAS G12V = target: T2, KRAS G12V (Homo sapiens, UniProt P01116, G12V); assay: HTRF nucleotide exchange assay (NEA), KRAS G12V
T2 construct: 4 nM KRAS; aa1-188 containing the G12V, G12C, G12A or G12S amino acid substitution
T2 sequence (P01116 1-188 isoform P01116-2 G12V): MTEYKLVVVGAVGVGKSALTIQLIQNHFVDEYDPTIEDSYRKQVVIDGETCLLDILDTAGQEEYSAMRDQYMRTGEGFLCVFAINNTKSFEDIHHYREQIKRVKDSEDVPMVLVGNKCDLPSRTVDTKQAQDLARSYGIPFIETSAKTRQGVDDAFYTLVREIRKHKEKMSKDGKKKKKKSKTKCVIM
Protocol: as §1

KRAS G12C = target: T3, KRAS G12C (Homo sapiens, UniProt P01116, G12C); assay: HTRF nucleotide exchange assay (NEA), KRAS G12C
T3 construct: 4 nM KRAS; aa1-188 containing the G12V, G12C, G12A or G12S amino acid substitution
T3 sequence (P01116 1-188 isoform P01116-2 G12C): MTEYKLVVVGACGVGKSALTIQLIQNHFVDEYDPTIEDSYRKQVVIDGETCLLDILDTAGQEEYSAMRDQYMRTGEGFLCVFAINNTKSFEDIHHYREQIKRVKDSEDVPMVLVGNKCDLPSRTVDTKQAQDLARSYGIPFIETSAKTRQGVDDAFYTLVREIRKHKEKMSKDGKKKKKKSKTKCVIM
Protocol: as §1

KRAS G12D = target: T4, KRAS G12D (Homo sapiens, UniProt P01116, G12D); assay: HTRF nucleotide exchange assay (NEA), KRAS G12D; conditions: recombinant human KRAS G12D aa1-188, 2 nM; lowest class = % inhibition at 10 μM
T4 construct: Recombinant human RAS protein (2 nM)
T4 sequence (P01116 1-188 isoform P01116-2 G12D): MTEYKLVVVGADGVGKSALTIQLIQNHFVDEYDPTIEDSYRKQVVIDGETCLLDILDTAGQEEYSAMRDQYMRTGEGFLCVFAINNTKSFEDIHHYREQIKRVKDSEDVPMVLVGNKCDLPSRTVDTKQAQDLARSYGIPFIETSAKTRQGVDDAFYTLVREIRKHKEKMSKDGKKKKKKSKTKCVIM
Protocol: as §1

T1 sequence (P01116 1-188 isoform P01116-2): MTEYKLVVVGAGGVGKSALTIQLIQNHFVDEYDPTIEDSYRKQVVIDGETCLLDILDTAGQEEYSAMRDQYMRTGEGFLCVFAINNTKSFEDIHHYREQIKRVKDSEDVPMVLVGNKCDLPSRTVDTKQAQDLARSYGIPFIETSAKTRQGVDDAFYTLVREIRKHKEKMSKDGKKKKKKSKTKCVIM

SMILES | IC50 (KRAS WT) | IC50 (KRAS G12V) | IC50 (KRAS G12C) | IC50 (KRAS G12D) | IC50 (KRAS G12V; recombinant human KRAS G12V aa1-188, 4 nM, lowest class = % inhibition at 10 μM) | IC50 (KRAS G12C; recombinant human KRAS G12C aa1-188, 4 nM, lowest class = % inhibition at 10 μM)
C#Cc1c(F)ccc2cc(O)cc(-c3ncc4c(N5CCC(O)CC5)nc(OC[C@@]56CCCN5C[C@H](F)C6)nc4c3F)c12 (relative stereo) [Example 86, 1-[7-(8-ethynyl-7-fluoro-3-hydroxy-1-naphthyl)-8-fluoro-2-[[trans-2-fluoro-1,2,3,5,6,7-hexahydropyrrolizin-8-yl]methoxy]pyrido[4,3-d]pyrimidin-4-yl]piperidin-4-ol] | ≤ 10 nM | ≤ 10 nM | ≤ 10 nM | ≤ 10 nM |  | 
Oc1cc(-c2ncc3c(N4CCC5(CCNC5)CC4)nc(OCC45CCCN4CCC5)nc3c2F)c2ccccc2c1 [Example 2, 4-[4-(2,8-diazaspiro[4.5]decan-8-yl)-8-fluoro-2-(1,2,3,5,6,7-hexahydropyrrolizin-8-ylmethoxy)pyrido[4,3-d]pyrimidin-7-yl]naphthalen-2-ol] | 100 to 10000 nM |  | 100 to 10000 nM | 100 to 10000 nM |  | 
Oc1cc(-c2ncc3c(N4CCOCC4)nc(OCC45CCCN4CCC5)nc3c2F)c2ccccc2c1 [Example 5, 4-[8-fluoro-2-(1,2,3,5,6,7-hexahydropyrrolizin-8-ylmethoxy)-4-(morpholin-4-yl)pyrido[4,3-d]pyrimidin-7-yl]naphthalen-2-ol] | 100 to 10000 nM | 100 to 10000 nM | 100 to 10000 nM | 100 to 10000 nM |  | 
CC1CN(c2nc(OCC34CCCN3CCC4)nc3c(F)c(-c4cc(O)cc5ccccc45)ncc23)CCO1 (stereo not drawn) [Example 6, 4-[8-fluoro-2-(1,2,3,5,6,7-hexahydropyrrolizin-8-ylmethoxy)-4-(2-methylmorpholin-4-yl)pyrido[4,3-d]pyrimidin-7-yl]naphthalen-2-ol] | 100 to 10000 nM | 100 to 10000 nM | 100 to 10000 nM | 100 to 10000 nM |  | 
Oc1cc(-c2ncc3c(N4CC5CCC(C4)O5)nc(OCC45CCCN4CCC5)nc3c2F)c2ccccc2c1 [Example 7, 4-[8-fluoro-2-(1,2,3,5,6,7-hexahydropyrrolizin-8-ylmethoxy)-4-(8-oxa-3-azabicyclo[3.2.1]octan-3-yl)pyrido[4,3-d]pyrimidin-7-yl]naphthalen-2-ol] | 100 to 10000 nM | 100 to 10000 nM | 100 to 10000 nM | 100 to 10000 nM |  | 
COCCCNc1nc(OCC23CCCN2CCC3)nc2c(F)c(-c3cc(O)cc4ccccc34)ncc12 [Example 11, 4-[8-fluoro-2-(1,2,3,5,6,7-hexahydropyrrolizin-8-ylmethoxy)-4-(3-methoxypropylamino)pyrido[4,3-d]pyrimidin-7-yl]naphthalen-2-ol] | 100 to 10000 nM | 100 to 10000 nM | 100 to 10000 nM | 10 to 100 nM |  | 
CC1COCCCN1c1nc(OCC23CCCN2CCC3)nc2c(F)c(-c3cc(O)cc4ccccc34)ncc12 (stereo not drawn) [Example 18, 4-[8-fluoro-2-(1,2,3,5,6,7-hexahydropyrrolizin-8-ylmethoxy)-4-(3-methyl-1,4-oxazepan-4-yl)pyrido[4,3-d]pyrimidin-7-yl]naphthalen-2-ol] | 10 to 100 nM |  | 10 to 100 nM | 10 to 100 nM |  | 
O=S1(=O)CCCN(c2nc(OCC34CCCN3CCC4)nc3c(F)c(-c4cc(O)cc5ccccc45)ncc23)CC1 [Example 24, 4-[4-(1,1-dioxo-1,4-thiazepan-4-yl)-8-fluoro-2-(1,2,3,5,6,7-hexahydropyrrolizin-8-ylmethoxy)pyrido [4,3-d]pyrimidin-7-yl]naphthalen-2-ol] | 100 to 10000 nM |  | 10 to 100 nM | 100 to 10000 nM |  | 
COC(=O)CCNc1nc(OCC23CCCN2CCC3)nc2c(F)c(-c3cc(O)cc4ccccc34)ncc12 [Example 25] | 100 to 10000 nM |  | 100 to 10000 nM | 100 to 10000 nM |  | 
CSCCCNc1nc(OCC23CCCN2CCC3)nc2c(F)c(-c3cc(O)cc4ccccc34)ncc12 [Example 26, 4-[8-fluoro-2-(1,2,3,5,6,7-hexahydropyrrolizin-8-ylmethoxy)-4-(3-methylsulfanylpropylamino)pyrido[4,3-d]pyrimidin-7-yl]naphthalen-2-ol] | 100 to 10000 nM |  | 100 to 10000 nM | 100 to 10000 nM |  | 
COCCCN(C)c1nc(OCC23CCCN2CCC3)nc2c(F)c(-c3cc(O)cc4ccccc34)ncc12 [Example 28, 4-[8-fluoro-2-(1,2,3,5,6,7-hexahydropyrrolizin-8-ylmethoxy)-4-[3-methoxypropyl(methyl)amino]pyrido[4,3-d]pyrimidin-7-yl]naphthalen-2-ol] | 100 to 10000 nM |  | 100 to 10000 nM | 100 to 10000 nM |  | 
Oc1cc(-c2ncc3c(N4CCC5COCC5C4)nc(OCC45CCCN4CCC5)nc3c2F)c2ccccc2c1 (stereo not drawn) [Example 51, 4-[4-(3,3a,4,6,7,7a-hexahydro-1H-furo[3,4-c]pyridin-5-yl)-8-fluoro-2-(1,2,3,5,6,7-hexahydropyrrolizin-8-ylmethoxy)pyrido [4,3-d]pyrimidin-7-yl]naphthalen-2-ol] | 100 to 10000 nM | 100 to 10000 nM | 100 to 10000 nM | 100 to 10000 nM |  | 
O=C1CCN(c2nc(OCC34CCCN3CCC4)nc3c(F)c(-c4cc(O)cc5ccccc45)ncc23)CCO1 [Example 72, 4-[8-fluoro-2-(1,2,3,5,6,7-hexahydropyrrolizin-8-ylmethoxy)-7-(3-hydroxy-1-naphthyl)pyrido[4,3-d]pyrimidin-4-yl]-1,4-oxazepan-7-one] | 100 to 10000 nM | 100 to 10000 nM | 100 to 10000 nM | 100 to 10000 nM |  | 
OCC1CCN(c2nc(OCC34CCCN3CCC4)nc3c(F)c(-c4cc(O)cc5ccccc45)ncc23)C1 (stereo not drawn) [Example 73, 4-[8-fluoro-2-(1,2,3,5,6,7-hexahydropyrrolizin-8-ylmethoxy)-4-[3-(hydroxymethyl)pyrrolidin-1-yl]pyrido[4,3-d]pyrimidin-7-yl]naphthalen-2-ol] | 100 to 10000 nM | 100 to 10000 nM | 100 to 10000 nM | 100 to 10000 nM |  | 
CC(C)(O)C1CCN(c2nc(OCC34CCCN3CCC4)nc3c(F)c(-c4cc(O)cc5ccccc45)ncc23)C1 (stereo not drawn) [Example 74, 4-[8-fluoro-2-(1,2,3,5,6,7-hexahydropyrrolizin-8-ylmethoxy)-4-[3-(1-hydroxy-1-methyl-ethyl)pyrrolidin-1-yl]pyrido[4,3-d]pyrimidin-7-yl]naphthalen-2-ol] | 100 to 10000 nM |  |  | > 10000 nM | > 10000 nM | > 10000 nM
CN1CCCN(c2nc(OCC34CCCN3CCC4)nc3c(F)c(-c4cc(O)cc5ccccc45)ncc23)CC1=O [Example 75, 4-[8-fluoro-2-(1,2,3,5,6,7-hexahydropyrrolizin-8-ylmethoxy)-7-(3-hydroxy-1-naphthyl)pyrido[4,3-d]pyrimidin-4-yl]-1-methyl-1,4-diazepan-2-one] | 100 to 10000 nM | 100 to 10000 nM | 100 to 10000 nM | 100 to 10000 nM |  | 
O=C1CC2(CCN(c3nc(OCC45CCCN4CCC5)nc4c(F)c(-c5cc(O)cc6ccccc56)ncc34)C2)CN1 (stereo not drawn) [Example 76, 2-[8-fluoro-2-(1,2,3,5,6,7-hexahydropyrrolizin-8-ylmethoxy)-7-(3-hydroxy-1-naphthyl)pyrido[4,3-d]pyrimidin-4-yl]-2,7-diazaspiro[4.4] nonan-8-one] | 100 to 10000 nM | 100 to 10000 nM | 100 to 10000 nM | > 10000 nM |  | 
O=C1NCCC12CCN(c1nc(OCC34CCCN3CCC4)nc3c(F)c(-c4cc(O)cc5ccccc45)ncc13)CC2 [Example 77, 8-[8-fluoro-2-(1,2,3,5,6,7-hexahydropyrrolizin-8-ylmethoxy)-7-(3-hydroxy-1-naphthyl)pyrido[4,3-d]pyrimidin-4-yl]-2,8-diazaspiro[4.5]decan-1-one] | 100 to 10000 nM | 100 to 10000 nM | 100 to 10000 nM | 100 to 10000 nM |  | 
CN1CCN(c2nc(OCC34CCCN3CCC4)nc3c(F)c(-c4cc(O)cc5ccccc45)ncc23)CCC1=O [Example 78, 1-[8-fluoro-2-(1,2,3,5,6,7-hexahydropyrrolizin-8-ylmethoxy)-7-(3-hydroxy-1-naphthyl)pyrido[4,3-d]pyrimidin-4-yl]-4-methyl-1,4-diazepan-5-one] | 100 to 10000 nM | 100 to 10000 nM | 100 to 10000 nM | 100 to 10000 nM |  | 
OCC1CCN(c2nc(OCC34CCCN3CCC4)nc3c(F)c(-c4cc(O)cc5ccccc45)ncc23)CC1 [Example 79, 4-[8-fluoro-2-(1,2,3,5,6,7-hexahydropyrrolizin-8-ylmethoxy)-4-[4-(hydroxymethyl)-1-piperidyl]pyrido[4,3-d]pyrimidin-7-yl]naphthalen-2-ol] | 10 to 100 nM | 10 to 100 nM | 10 to 100 nM | 10 to 100 nM |  | 
O=C1CC2(CCN(c3nc(OCC45CCCN4CCC5)nc4c(F)c(-c5cc(O)cc6ccccc56)ncc34)CC2)CN1 [Example 81, 8-[8-fluoro-2-(1,2,3,5,6,7-hexahydropyrrolizin-8-ylmethoxy)-7-(3-hydroxy-1-naphthyl)pyrido[4,3-d]pyrimidin-4-yl]-2,8-diazaspiro[4.5]decan-3-one] | 100 to 10000 nM | 10 to 100 nM | 100 to 10000 nM | 100 to 10000 nM |  | 
